According to paper PMC9917184, “Synthesis and Biological Evaluation of Potential Oncoimmunomodulator Agents” (International Journal of Molecular Sciences, 2023):
Read-outs that look alike come from different tables or passages of the source.

Experiments:
c-Myc = assay: Total c-Myc relative quantification by flow cytometry in cancer cell lines; format: cell-based, human; details: 24 h
Method: (§1) The effect of these triazole derivates on c-Myc and PD-L1 was measured in three different cancer cell lines (HT-29, MCF-7, A-549) by flow cytometry. Thus, cells were incubated for 24 h with the corresponding compound at a concentration of 100 μM. Dimethyl sulfoxide (DMSO)-treated cells were used as the negative control, and a PD-L1 inhibitor, BMS-8 [29, 31], was used as a reference control. After permeabilization and fixation, cells were treated with anti-PD-L1 conjugated to AlexaFluor®647 and anti-c-Myc conjugated to fluorescein to determine the amount of both targets related to the negative control. Table 1 show the results in terms of the percentage of the detected target in relation to the negative control. This assay was carried out on cancer cell lines HT-29, MCF-7, and A-549.
(§2) To study the effect of the compounds on every biological target in cancer cell lines, the compounds were used at a 100 µM dose.
(§3) For the assay, 10^5 cells per well were incubated for 24 h with the corresponding dose of the tested compound in a total volume of 500 μL of their growth media.
(§4) To detect total PD-L1 and c-Myc, after the cell treatments, they were collected and fixed with 4% in PBS paraformaldehyde. After fixation, a treatment with 0,5% in PBS Triton™ X-100 was performed, and finally, cells were stained with FITC Mouse monoclonal Anti-c-Myc (ab223913) and Alexa Fluor® 647 Rabbit monoclonal Anti-PD-L1 (ab215251).

MCF-7 = MCF-7 cell viability in co-culture with Jurkat T cells (flow cytometry count); format: cell-based, human; details: 24 h; for viability at 100 µM: Homo sapiens, MCF7, MCF-7/Jurkat T co-culture, IFN-γ stimulated, read-out: percentage of living MCF-7 cells relative to non-treated co-cultures; for inhibition rate of MCF-7 cell viability: co-cultured with Jurkat T cells, 100 μM
Method: (§5) The effect of the synthesized compounds on tumor cell proliferation in the presence of PD-1-expressing Jurkat T cells was also studied. This assay was carried out, as in the previous experiments, in the HT29, MCF7, and A549 cell lines (see Table 4). Interferon γ-stimulated cancer cells were treated for 24 h with the compounds at 100 μM in presence of Jurkat T cells. Then, cells were counted using flow cytometry. The percentage of living cells relative to non-treated co-cultures (control) was established for both cancer and immune cells in every co-culture.
(§6) To study the effect of the compounds on the cell viability in co-culture with Jurkat T cells or THP-1 cells, 10^5 or 2 × 10^5 of the corresponding cancer cells line per well were seeded and incubated for 24 h, then the medium was changed by one cell culture medium supplemented with IFN-γ (10 ng/mL; human, Invitrogen®) and containing 5 × 10^5 or 10^5 Jurkat T cells or THP-1, respectively, per well and 100 µM of the corresponding compound or DMSO for the […] control. After 24 h/48 h of incubation, supernatants were collected to determine Jurkat T or THP-1 living cells, and on the other hand, corresponding cancer cells were collected with trypsin. Both types of suspension cells were fixed with 4% in PBS paraformaldehyde and counted by flow cytometry.

PD-L1 = PD-L1 (Homo sapiens, UniProt Q9NZQ7); assay: Total PD-L1 relative quantification by flow cytometry in cancer cell lines; format: cell-based; design: Alexa Fluor® 647 Rabbit monoclonal Anti-PD-L1 (ab215251); endogenous in cells; host or cells: HT-29; details: 24 h, total PD-L1 relative to negative control (DMSO)
PD-L1, sequence (Q9NZQ7 19-290): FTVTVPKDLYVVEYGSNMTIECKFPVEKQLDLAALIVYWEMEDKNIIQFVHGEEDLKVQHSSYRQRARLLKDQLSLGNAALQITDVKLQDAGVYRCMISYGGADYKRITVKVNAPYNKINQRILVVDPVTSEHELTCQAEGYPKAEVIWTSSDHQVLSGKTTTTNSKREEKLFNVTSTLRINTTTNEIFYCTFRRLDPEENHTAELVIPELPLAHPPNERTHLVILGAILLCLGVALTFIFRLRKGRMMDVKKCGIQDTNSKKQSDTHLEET
Method: as §1, §2, §3, §4

membrane PD-L1 = target: T1, membrane PD-L1 (Homo sapiens, UniProt Q9NZQ7); assay: Membrane PD-L1 relative quantification by flow cytometry in cancer cells co-cultured with Jurkat T cells; format: cell-based; details: Jurkat, 24 h; for remaining activity at 100 µM: relative to non-treated co-cultures, read-out: % PDL1 (membrane); for inhibition at 100 µM: HT-29 co-cultured with Jurkat T cells, read-out: membrane PD-L1 inhibition rate
T1 construct: Alexa Fluor® 647 Rabbit monoclonal Anti-PD-L1 (ab215251); endogenous in cells; host or cells: HT-29, MCF-7, A-549 (A17: MCF-7 only; A14: IFN-gamma-stimulated cancer cells co-cultured with Jurkat T cells)
T1 sequence (Q9NZQ7 19-290): as above
Method: (§7) We determined by flow cytometry the effect of these compounds on the expression of membrane PD-L1 in cancer cells when they were co-cultured with immune cells. Thus, interferon γ-stimulated cancer cells were treated for 24 h with the compounds at 100 μM in presence of Jurkat T cells. Then, cells were fixed and treated with anti-PD-L1 conjugated to AlexaFluor®647. We took advantage of the versatility of flow cytometry to simultaneously measure the expression of membrane VEGFR-2 by using anti-VEGFR-2 conjugated to fluorescein.
(§8) To study the effect of the compounds on every biological target in co-cultured cancer cell lines, the compounds were incubated for 24h as described before.
(§9) To detect membrane PD-L1 and VEGFR-2, after the cell treatments, they were collected, fixed with 4% in PBS paraformaldehyde, and stained with FITC Mouse monoclonal Anti-Human VEGFR-2 (ab184903) and Alexa Fluor® 647 Rabbit monoclonal Anti-PD-L1 (ab215251).

Jurkat T cells = assay: Jurkat T cell viability in co-culture with cancer cells (flow cytometry count); format: cell-based; details: Homo sapiens, 24 h, read-out: percentage of living Jurkat cells relative to non-treated co-cultures
Method: as §5, §6

HT-29 = HT-29 cell viability in co-culture with Jurkat T cells (flow cytometry count); format: cell-based, human; details: Homo sapiens, HT-29/Jurkat T co-culture, IFN-γ stimulated, 24 h, read-out: percentage of living HT-29 cells relative to non-treated co-cultures
Method: as §5, §6

A-549 = A-549 cell viability in co-culture with Jurkat T cells (flow cytometry count); format: cell-based, human; details: 24 h; for viability at 100 µM: Homo sapiens, A549, A-549/Jurkat T co-culture, IFN-γ stimulated, read-out: percentage of living A-549 cells relative to non-treated co-cultures; for inhibition rate of A-549 cell viability: co-cultured with Jurkat T cells, 100 μM
Method: as §5, §6

membrane VEGFR-2 = assay: Membrane VEGFR-2 relative quantification by flow cytometry in cancer cells co-cultured with Jurkat T cells; format: cell-based, human; details: 100 μM, 24 h, relative to non-treated co-cultures
Method: as §7, §8, §9

[1] = A-549, 100 µM, relative to negative control (DMSO)
[2] = HT-29, 100 µM, detected target relative to negative control (DMSO)
[3] = MCF-7, 100 µM, relative to negative control (DMSO)
[4] = A549 co-cultured with Jurkat T cells
[5] = HT29 co-cultured with Jurkat T cells
[6] = MCF7 co-cultured with Jurkat T cells

| Structure (SMILES) | remaining activity at 100 µM (PD-L1; A549, A-549, 100 µM) | remaining activity at 100 µM (PD-L1; HT-29, 100 µM) | remaining activity at 100 µM (PD-L1; MCF7, MCF-7, 100 µM) | remaining activity at 100 µM (membrane PD-L1; [4]) | remaining activity at 100 µM (membrane PD-L1; [5]) | remaining activity at 100 µM (membrane PD-L1; [6]) | inhibition at 100 µM (membrane PD-L1) | % c-Myc (c-Myc; [1]) | % c-Myc (c-Myc; [2]) | % c-Myc (c-Myc; [3]) | viability at 100 µM (MCF-7) | viability at 100 µM (Jurkat T cells; A-549/Jurkat T co-culture) | viability at 100 µM (Jurkat T cells; HT-29/Jurkat T co-culture) | viability at 100 µM (Jurkat T cells; MCF-7/Jurkat T co-culture) | viability at 100 µM (HT-29) | viability at 100 µM (A-549) | inhibition rate of A-549 cell viability (A-549) | %VEGFR2 (membrane) (membrane VEGFR-2; [4]) | %VEGFR2 (membrane) (membrane VEGFR-2; [5]) | %VEGFR2 (membrane) (membrane VEGFR-2; [6]) | also measured |
| --- | --- | --- | --- | --- | --- | --- | --- | --- | --- | --- | --- | --- | --- | --- | --- | --- | --- | --- | --- | --- | --- |
| OCCc1ccc(CCn2cc(-c3cccc(Br)c3)nn2)cc1 [Compound 6, 2-(4-(2-(4-(3-bromophenyl)-1H-1,2,3-triazol-1-yl)ethyl)phenyl)ethan-1-ol] | 62 ± 4% | 104 ± 6% | 110 ± 4% | 75 ± 1% | 63 ± 6% | 66 ± 11% | 40 to 50% | 84 ± 9% | 149 ± 12% | 81 ± 6% | 65 ± 8% | 119 ± 6% | 116 ± 7% | 119 ± 1% | 104 ± 4% | 75 ± 3% | around 30% | 87 ± 7% | 98 ± 2% | 98 ± 6% |  |
| COc1ccccc1-c1cn(CCc2ccc(CCO)cc2)nn1 [Compound 14, 2-(4-(2-(4-(2-methoxyphenyl)-1H-1,2,3-triazol-1-yl)ethyl)phenyl)ethan-1-ol] | 54 ± 7% | 138 ± 2% | 71% | 85 ± 3% | 61 ± 3% | 80 ± 5% | 40 to 50% | 85 ± 10% | 67 ± 4% | 71 ± 5% | 47 ± 1% | 109 ± 20% | 106 ± 9% | 127 ± 6% | 67 ± 10% | 78 ± 9% | around 30% | 106 ± 1% | 97 ± 6% | 91 ± 6% | inhibition rate of MCF-7 cell viability (MCF-7): around 60% |
| OCCc1ccc(CCn2cc(-c3ccccc3Br)nn2)cc1 [Compound 8, 2-(4-(2-(4-(2-bromophenyl)-1H-1,2,3-triazol-1-yl)ethyl)phenyl)ethan-1-ol] | 44 ± 8% | 115 ± 5% | 81 ± 1% | 84 ± 8% | 58 ± 6% | 46 ± 9% | 40 to 50% | 48 ± 7% | 88 ± 2% | 92 ± 6% | 49 ± 10% | 88 ± 34% | 95 ± 5% | 164 ± 9% | 97 ± 10% | 72 ± 9% | around 30% | 104 ± 5% | 97 ± 4% | 108 ± 6% |  |

More lines, main results first:

| remaining activity at 100 µM (PD-L1; A549, A-549, 100 µM) | remaining activity at 100 µM (PD-L1; HT-29, 100 µM) | remaining activity at 100 µM (PD-L1; MCF7, MCF-7, 100 µM) | remaining activity at 100 µM (membrane PD-L1; [4]) | remaining activity at 100 µM (membrane PD-L1; [5]) | remaining activity at 100 µM (membrane PD-L1; [6]) | inhibition at 100 µM (membrane PD-L1) | Structure (SMILES) | % c-Myc (c-Myc; [1]) | % c-Myc (c-Myc; [2]) | % c-Myc (c-Myc; [3]) | viability at 100 µM (MCF-7) | viability at 100 µM (Jurkat T cells; A-549/Jurkat T co-culture) | viability at 100 µM (Jurkat T cells; HT-29/Jurkat T co-culture) | viability at 100 µM (Jurkat T cells; MCF-7/Jurkat T co-culture) | viability at 100 µM (HT-29) | viability at 100 µM (A-549) | inhibition rate of A-549 cell viability (A-549) | %VEGFR2 (membrane) (membrane VEGFR-2; [4]) | %VEGFR2 (membrane) (membrane VEGFR-2; [5]) | %VEGFR2 (membrane) (membrane VEGFR-2; [6]) | also measured |
| --- | --- | --- | --- | --- | --- | --- | --- | --- | --- | --- | --- | --- | --- | --- | --- | --- | --- | --- | --- | --- | --- |
| 120 ± 5% | 102 ± 1% | 87 ± 6% | 83 ± 6% | 57 ± 12% | 33 ± 4% | 40 to 50% | COc1ccc(C(OCCc2ccc(CCn3cc(-c4ccccc4OC)nn3)cc2)(c2ccccc2)c2ccc(OC)cc2)cc1 [Compound 13, 1-(4-(2-(bis(4-methoxyphenyl)(phenyl)methoxy)ethyl)phenethyl)-4-(2-methoxyphenyl)-1H-1,2,3-triazole] | 51 ± 2% | 68 ± 3% | 77 ± 5% | 43 ± 1% | 90 ± 2% | 110 ± 9% | 79 ± 5% | 153 ± 15% | 103 ± 4% |  | 80 ± 8% | 89 ± 2% | 120 ± 8% | c-Myc inhibition rate (c-Myc; A-549, 100 μM): 50%; inhibition rate of MCF-7 cell viability (MCF-7): around 60% |
| 104 ± 1% | 48 ± 4% | 108 ± 7% | 94 ± 1% | 104 ± 14% | 48 ± 7% |  | COc1ccc(C(OCCc2ccc(CCn3cc(-c4cccc(OC)c4)nn3)cc2)(c2ccccc2)c2ccc(OC)cc2)cc1 [Compound 11, 1-(4-(2-(bis(4-methoxyphenyl)(phenyl)methoxy)ethyl)phenethyl)-4-(3-methoxyphenyl)-1H-1,2,3-triazole] | 55 ± 4% | 50 ± 3% | 81 ± 2% | 50 ± 1% | 511 ± 86% | 76 ± 52% | 79 ± 13% | 65 ± 6% | 102 ± 4% |  | 85 ± 1% | 79 ± 10% | 92 ± 10% | c-Myc inhibition (c-Myc; HT-29, 100 μM): 50%; inhibition rate of MCF-7 cell viability (MCF-7): half |
